Results taken from ChEMBL document CHEMBL1201862, “PubChem BioAssay data set” (2004).
The source made the active and inactive calls.

What was measured:
[1] = Trypanosoma cruzi growth suppression in host cells – NIH3T3 host cells, beta-gal luminescence, confirmation (AID 2044); format: functional, cell-based;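 note: intracellular parasites grown in NIH/3T3 mouse fibroblasts as host cells; luminescent beta-galactosidase reporter signal from transgenic T. cruzi replicating inside host cells; inhibitors lower the luminescence signal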
[2] = NIH3T3 cell viability loss – ATP luminescence, mouse fibroblasts, counter-screen, dose response (AID 2010); format: functional, cell-based;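 note: cells exposed to compound for about 90 hours before reading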
[3] = system: Streptococcus; assay: GAS UMAA2166 growth inhibition – luminescence, BacTiterGlo, counter-screen for streptokinase expression inhibitor project, dose response (AID 1915); format: functional, organism-based;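 note: potency for reduction of bacterial viability or growth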
[4] = Counterscreen for AddAB inhibitors: absorbance-based bacterial cell-based high throughput dose response assay for inhibitors of bacterial viability. [Related pubchem assays (depositor defined):AID435030, AID449728, AID449731, AID488942, AID488955, AID488956]; format: functional
[5] = system: HEK293; assay: SAR Analysis of small molecule inhibitors of T-cell specific antigen receptor-induced NF-kB activation in a HEK-293T cell line using a luminescence assay - Set 2. [Related pubchem assays (depositor defined):AID435003, AID435012, AID489026]; format: functional, cell-based; conditions: Homo sapiens
[6] = reduction of Shn3 3'UTR-driven luciferase in osteoblasts – cell-based, Clone20 osteoblasts, firefly luciferase, cherry-picked, dose response (AID 624132); format: functional;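 note: firefly luciferase luminescence from reporter carrying the Shn3 3'UTR in osteoblasts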

## Cc1ccc(-n2sc3ccccc3c2=O)cc1
[1]
  EC50: 361 nM (active)
[2]
  EC50: 9710 nM (active)
[3]
  EC50: 3630 nM (active)

## CCC(=O)NC(c1ccc(C)cc1)c1ccc2cccnc2c1O (centres undefined)
[1]
  EC50: 481 nM (active)
[2]
  EC50: 687 nM (active)
[4]
  IC50: > 119000 nM (inactive)
[5]
  IC50: 7020 nM (active)
[6]
  AC50: 704 nM (active)

## CCCC(=O)NC(c1ccc(Cl)cc1)c1ccc2cccnc2c1O (centres undefined)
[1]
  EC50: 226 nM (active)
[2]
  EC50: 425 nM (active)
[3]
  EC50: 30100 nM (active)
[4]
  IC50: > 119000 nM (inactive)
[5]
  IC50: 4230 nM (active)
[6]
  AC50: 937 nM (active)
